Source: patent publication US12590106B2, “Spiromacrocyclic orexin 2 receptor agonists” (H. Lundbeck A/S, priority 2023, dated 2026)

Biological target: T1, human Ox2R (Homo sapiens, UniProt O43614)
T1 construct: The gene encoding hOx2R was subcloned into the expression plasmid pcDNA5/FRT/TO; expressed in transfected cells; host or cells: CHO Flp-In cells (pcDNA5/FRT/TO with pOG44 Flp recombinase vector, hygromycin B selection)
T1 sequence (O43614 1-444): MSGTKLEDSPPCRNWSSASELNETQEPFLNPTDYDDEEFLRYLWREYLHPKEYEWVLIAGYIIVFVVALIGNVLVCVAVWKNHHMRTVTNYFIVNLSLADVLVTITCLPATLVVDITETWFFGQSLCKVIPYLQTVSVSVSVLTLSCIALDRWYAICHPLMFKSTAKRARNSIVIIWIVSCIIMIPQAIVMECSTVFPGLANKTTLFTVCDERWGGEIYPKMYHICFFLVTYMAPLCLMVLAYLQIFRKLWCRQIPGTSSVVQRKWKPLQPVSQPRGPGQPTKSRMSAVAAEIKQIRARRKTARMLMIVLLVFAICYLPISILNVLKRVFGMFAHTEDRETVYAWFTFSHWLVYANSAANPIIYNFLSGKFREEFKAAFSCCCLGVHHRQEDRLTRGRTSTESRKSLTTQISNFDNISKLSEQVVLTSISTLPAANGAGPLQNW
Test: Measurement of OX2R agonist activity (cell-based calcium release assay)
Settings: hOx2R-CHO Flp-In cells, n≥2 tests; for EC50: intracellular calcium, read-out: EC50; for Emax: normalized to assay buffer (0%) and 10 μM Danavorexton (100%), read-out: Emax (%)
Excerpt: Measurement of OX2R Agonist Activity
The Ox2R has a broad signaling profile and couple to a range of different Gα-proteins. The cell-based calcium release assay is primarily assessing signaling through the Gαq signaling pathway, which promotes calcium mobilization via inositol triphosphate production upon activation of Ox2R.
A CHO Flp-In cell-line stably expressing the human Ox2R (hOx2R-CHO Flp-In) was established as follows: The gene encoding hOx2R was subcloned into the expression plasmid pcDNA5/FRT/TO and then transfected into CHO Flp-In cells together with the Flp recombinase vector, pOG44. Cells were cultured in growth medium: Ham's F12 (Gibco), 10% fetal bovine serum (Gibco) and 100 U/mL penicillin-streptomycin (Gibco) supplemented with hygromycin B (Thermo Fisher Scientific) as selection marker at 37° C. in the presence of 5% CO2.
To prepare the hOx2R-CHO FlpIn cells for calcium release assay, the cells were suspended in growth medium and seeded in black, clear-bottomed 384-well plates (Corning) at 10,000 cells/well. The plated cells were grown overnight at 37° C. and 5% CO2. The following day, the media was removed, and the cells were incubated with assay buffer (HBSS with 20 mM HEPES, pH 7.4) containing 2.5 mM probenecid (Thermo Fisher Scientific), 10 mM CaCl2, 0.1% pluronic F68 (Gibco) and 1× calcium-4 dye (Molecular Devices) for 1 h at 37° C. and 5% CO2. After incubation, cells were allowed to equilibrate at room temperature for 15 minutes and then loaded into FDSS7000Ex system (Hamamatsu Photonics) together with a plate containing test compounds serially diluted in assay buffer. Cells were stimulated with test compounds (online injection) and the agonist activity was determined as an increase in intracellular calcium concentration measured from the ratio of fluorescence emission at 542 nm by excitation at 480 nm. The agonist response for each applied concentration was assessed as the ratio: maximum fluorescence/average pre-stimulated fluorescence and was normalized to responses from assay buffer alone (0% response) and 10 μM Danavorexton (100% response). EC50 and Emax values were calculated from concentration-response curves by using Genedata Screener software.

Row | EC50 [nM] | Emax [%] | Compound
1 | 0.28 | 95 | CN(C)S(=O)(=O)N[C@H]1CC[C@@]2(Cc3ccc(F)c(c3)-c3ccccc3OCc3coc2n3)C1 [Example 13, (3′S,14R)-3′-(dimethylsulfamoylamino)-19-fluoro-spiro[8,12-dioxa-21-azatetracyclo[14.3.1.110,13.02,7]henicosa-1(19),2,4,6,10,13(21),16(20),17-octaene-14,1′-cyclopentane]]
2 | 0.62 | 97 | CS(=O)(=O)N[C@H]1CC[C@@]2(Cc3ccc(F)c(c3)-c3ccc(F)c(F)c3OCc3coc2n3)C1 [Example 14, N-[(1′S,14R)-5,6,19-trifluorospiro[8,12-dioxa-21-azatetracyclo[14.3.1.110,13.02,7]henicosa-1(19),2,4,6,10,13(21),16(20),17-octaene-14,3′-cyclopentane]-1′-yl]methanesulfonamide]
3 | 8.1 | 98 | CS(=O)(=O)N[C@H]1CC[C@@]2(Cc3ccc(F)c(c3)-c3ccc(F)cc3OCc3coc2n3)C1 [Example 15, N-[(1′S,14R)-5,19-difluorospiro[8,12-dioxa-21-azatetracyclo[14.3.1.110,13.02,7]henicosa-1(19),2,4,6,10,13(21),16(20),17-octaene-14,3′-cyclopentane]-1′-yl]methanesulfonamide]
4 | 0.22 | 96 | CS(=O)(=O)N[C@H]1CC[C@@]2(Cc3cc(ccc3F)-c3cccc(F)c3OCc3coc2n3)C1 [Example 17, N-[(1′S,14R)-6,17-difluorospiro[8,12-dioxa-21-azatetracyclo[14.3.1.110,13.02,7]henicosa-1(19),2,4,6,10,13(21),16(20),17-octaene-14,3′-cyclopentane]-1′-yl]methanesulfonamide]
5 | 0.19 | 95 | CS(=O)(=O)N[C@H]1CC[C@@]2(Cc3cc(c(F)cc3F)-c3ccccc3OCc3coc2n3)C1 [Example 18, N-[(1′S,14R)-17,19-difluorospiro[8,12-dioxa-21-azatetracyclo[14.3.1.110,13.02,7]henicosa-1(19),2,4,6,10,13(21),16(20),17-octaene-14,3′-cyclopentane]-1′-yl]methanesulfonamide]
6 | 35 | 100 | CS(=O)(=O)N[C@H]1CC[C@@]2(Cc3ccnc(c3)-c3cccc(F)c3OCc3coc2n3)C1 [Example 19, N-[(1′S,14R)-6-fluorospiro[8,12-dioxa-19,21-diazatetracyclo[14.3.1.110,13.02,7]henicosa-1(19),2,4,6,10,13(21),16(20),17-octaene-14,3′-cyclopentane]-1′-yl]methanesulfonamide]
7 | 0.33 | 97 | CS(=O)(=O)N[C@H]1CC[C@@]2(Cc3ccc(F)c(c3)-c3cccc(Cl)c3OCc3coc2n3)C1 [Example 20, N-[(1′S,14R)-6-chloro-19-fluoro-spiro[8,12-dioxa-21-azatetracyclo[14.3.1.110,13.02,7]henicosa-1(19),2,4,6,10,13(21),16(20),17-octaene-14,3′-cyclopentane]-1′-yl]methanesulfonamide]
8 | 0.82 | 96 | Cc1ccc2cc1-c1cccc(F)c1OCc1coc(n1)[C@]1(CC[C@H](NS(C)(=O)=O)C1)C2 [Example 22, N-[(1′S,14R)-6-fluoro-19-methyl-spiro[8,12-dioxa-21-azatetracyclo[14.3.1.110,13.02,7]henicosa-1(19),2,4,6,10,13(21),16(20),17-octaene-14,3′-cyclopentane]-1′-yl]methanesulfonamide]
9 | 1.3 | 98 | CS(=O)(=O)N[C@H]1CC[C@@]2(Cc3ccc(C(F)(F)F)c(c3)-c3cccc(F)c3OCc3coc2n3)C1 [Example 23, N-[(1′S,14R)-6-fluoro-19-(trifluoromethyl)spiro[8,12-dioxa-21-azatetracyclo[14.3.1.110,13.02,7]henicosa-1(19),2,4,6,10,13(21),16(20),17-octaene-14,3′-cyclopentane]-1′-yl]methanesulfonamide]
10 | 5.2 | 98 | CS(=O)(=O)N[C@H]1CC[C@@]2(Cc3ccc(C(F)(F)F)c(c3)-c3ccccc3OCc3coc2n3)C1 [Example 24, N-[(1′S,14R)-19-(trifluoromethyl)spiro[8,12-dioxa-21-azatetracyclo[14.3.1.110,13.02,7]henicosa-1(19),2,4,6,10,13(21),16(20),17-octaene-14,3′-cyclopentane]-1′-yl]methanesulfonamide]
11 | 0.19 | 95 | Cc1oc2nc1COc1ccccc1-c1cc(ccc1F)C[C@@]21CC[C@H](NS(C)(=O)=O)C1 [Example 26, N-[(1′S,14R)-19-fluoro-11-methyl-spiro[8,12-dioxa-21-azatetracyclo[14.3.1.110,13.02,7]henicosa-1(19),2,4,6,10,13(21),16(20),17-octaene-14,3′-cyclopentane]-1′-yl]methanesulfonamide]
12 | 0.65 | 100 | CS(=O)(=O)N[C@H]1CC[C@@]2(Cc3cc(ccc3F)-c3c(F)ccc(F)c3OCc3coc2n3)C1 [Example 27, N-[(1′S,14R)-3,6,17-trifluorospiro[8,12-dioxa-21-azatetracyclo[14.3.1.110,13.02,7]henicosa-1(20),2,4,6,10,13(21),16,18-octaene-14,3′-cyclopentane]-1′-yl]methanesulfonamide]
13 | 6 | 99 | CS(=O)(=O)N[C@H]1CC[C@@]2(Cc3cc(ccc3F)-c3ccc(F)c(F)c3OCc3coc2n3)C1 [Example 28, N-[(1′S,14R)-5,6,17-trifluorospiro[8,12-dioxa-21-azatetracyclo[14.3.1.110,13.02,7]henicosa-1(19),2,4,6,10,13(21),16(20),17-octaene-14,3′-cyclopentane]-1′-yl]methanesulfonamide]
14 | 2 | 98 | CS(=O)(=O)N[C@H]1CC[C@@]2(Cc3cc(ccc3F)-c3cccc(Cl)c3OCc3coc2n3)C1 [Example 29, N-[(1′S,14R)-6-chloro-17-fluoro-spiro[8,12-dioxa-21-azatetracyclo[14.3.1.110,13.02,7]henicosa-1(19),2,4,6,10,13(21),16(20),17-octaene-14,3′-cyclopentane]-1′-yl]methanesulfonamide]
15 | 0.48 | 96 | CS(=O)(=O)N[C@H]1CC[C@@]2(Cc3ccc(Cl)c(c3)-c3ccc(F)c(F)c3OCc3coc2n3)C1 [Example 31, N-[(1′S,14R)-19-chloro-5,6-difluoro-spiro[8,12-dioxa-21-azatetracyclo[14.3.1.110,13.02,7]henicosa-1(19),2,4,6,10,13(21),16(20),17-octaene-14,3′-cyclopentane]-1′-yl]methanesulfonamide]
16 | 0.28 | 98 | CS(=O)(=O)N[C@H]1CC[C@@]2(Cc3cc(c(F)cc3Cl)-c3cccc(F)c3OCc3coc2n3)C1 [Example 32, N-[(1′S,14R)-17-chloro-6,19-difluoro-spiro[8,12-dioxa-21-azatetracyclo[14.3.1.110,13.02,7]henicosa-1(19),2,4,6,10,13(21),16(20),17-octaene-14,3′-cyclopentane]-1′-yl]methanesulfonamide]
17 | 0.1 | 97 | O=S(=O)(N[C@H]1CC[C@@]2(Cc3ccc(F)c(c3)-c3cccc(F)c3OCc3coc2n3)C1)C1CC1 [Example 33, N-[(1′S,14R)-6,19-difluorospiro[8,12-dioxa-21-azatetracyclo[14.3.1.110,13.02,7]henicosa-1(19),2,4,6,10,13(21),16(20),17-octaene-14,3′-cyclopentane]-1′-yl]cyclopropanesulfonamide]
18 | 0.8 | 98 | O=S(=O)(N[C@H]1CC[C@@]2(Cc3ccc(F)c(c3)-c3ccc(F)c(F)c3OCc3coc2n3)C1)C1CC1 [Example 34, N-[(1′S,14R)-5,6,19-trifluorospiro[8,12-dioxa-21-azatetracyclo[14.3.1.110,13.02,7]henicosa-1(19),2,4,6,10,13(21),16(20),17-octaene-14,3′-cyclopentane]-1′-yl]cyclopropanesulfonamide]
